Experimental data: patent US7557268B1, “Promoter for expression of a gene and response to infection or wounding” (priority 1999, dated 2009)
Where two headings read alike, the source gives them in different places.

Experiments:
[1] = system: sugar beet promoter (gus reporter) in transgenic rape lines AG5947-t38, AG5947-t48; experiment: Induction of the promoter in leaf disks of transgenic rape by salicylic acid and PMG-elicitor; type: cell-based; details: SA 0.5 mM, PMG-Elicitor 25 μg/ml
From the text: In order to examine the effect of salicylic acid and a purified PMG-elicitor from the cell wall of Phytophthora sojae (Valent, 1978) on the promoter activity, leaf disks with a diameter of 14 mm were stamped out of the leaves of greenhouse plants with the aid of a cork punch. The use of leaf disks facilitates the uptake of the salicylic acid or as the case may be the elicitor along the wound edge into the leaf tissue. Respectively 10 leaf disks from leaves of the transformed AG5947-t38 and […] were incubated in 90 mm sized petri dishes in salicylic acid containing medium (LS-medium without sucrose, 5 mM MES pH 7.0, 0.5 mM SA), in PMG-elicitor containing medium (LS-medium without sucrose, 5 mM MES pH 7.0, 25 μg elicitor/ml) or in control medium (LS-medium without sucrose, 5 mM MES pH 7.0) for 16 hours at 24° C. The activity of a promoter is described as in Jefferson (1987) measured by a quantitative determination of the GUS-activity.

[2] = system: sugar beet promoter (pAG5947-trans, gus reporter) in transgenic tobacco PR1-52; experiment: Promoter activity in leaf disks of transgenic tobacco PR1-52 with increasing plant age; type: cell-based, Nicotianum tabacum cv. SR1; details: for Separated + SA Specific GUS-Activity: leaf disks, 0.5 mM SA, 16 hours; for SA-Induction: vs fresh harvested control leaves
Experimental: […] SR1. The produced tobacco transformates are given identification PR1-52, PR1-54 and PR1-56. The transformate PR1-52 is multiplied and placed in a greenhouse. After the plant has achieved a height of approximately 20 cm, the activatability of the sugar beet promoter is analyzed depending upon the plant age. For this, 6 leaves of different ages on the plant were selected. The oldest, lowest leaf is given reference number 1 and the youngest, highest leaf is given the reference number 6. From the leaf half of one of each leaf there is stamped out, with the aid of a 14 mm cork punch, respectively 15 equally sized leaf disks. Respectively 5 leaf disks are incubated in 90 mm sized petri dishes in salicylic acid containing medium (LS-Medium without Sucrose, 5 mM MES pH 7.0, 0.5 mM SA), in PMG-elicitor containing medium (LS-Medium without Sucrose, 5 mM MES pH 7.0, 1 unit elicitor/ml) or in control medium (LS-Medium without Sucrose, 5 mM MES pH 7.0) for 16 hours at 24° C. On the next day, from each treated leaf half again 5 disks were stamped out for control purposes. The activity of the promoter in these disks as well as the disks incubated over night were measured according to Jefferson (1987) by a quantitative determination of the GUS-activity. After 16 days the corresponding test is repeated with the still intact leaf halves of the leaves 1-6. The tobacco plant is in the meantime grown and approximately 50-60 cm high. […] The promoter activity increases with increasing age of the transgenic plants. The wounding or as the case may be the elicitation or as the case may be salicylic acid application leads, in the reporter gene plant with high plant age, in all examined leaves to a higher reporter gene activity and therewith promoter activity. The plant age has however no influence on the relative induction of the promoter by wounding, elicitation or salicylic acid application.

[3] = system: pAG5947-trans promoter (gus reporter) in PR1-52, PR1-54, PR1-56; experiment: Promoter activity of pAG5947-trans in leaf disks of transgenic tobacco; type: cell-based; details: for SA-Induction: vs fresh harvested control leaves
[4] = system: pAG516 promoter deletion (gus reporter) in PR4-19, PR4-21, PR4-22; experiment: Promoter activity of deletion construct pAG516 in leaf disks of transgenic tobacco; type: cell-based; details: for Separated + SA Specific GUS Activity: leaf disks; for SA-Induction: vs fresh harvested control leaves
[5] = system: pAG2339 promoter deletion (gus reporter) in PR8-2, PR8-3, PR8-12; type: cell-based, tobacco; details: leaf disks, SA
[6] = system: SR1 non-transgenic starting line; experiment: GUS activity in leaf disks of the non-transgenic tobacco starting line; type: cell-based
[7] = system: promoter activity (transcript amount) in leaves of sugar beets; experiment: Activation of the promoter in sugar beet leaf disks by salicylic acid, RNA-blot with phosphoimager; type: cell-based; details: for transcript amount formed by the promoter activity: sugar beet leaf disks, 2.0 mM Salicyclic Acid
Experimental: In order to investigate the reaction of the promoter in sugar beet leaves to abiotic triggers such as wounds or, as the case may be, on the effect of resistance inductors such as salicylic acid, leaf disks (1 cm diameter) were punched out of 12 week old sugar beets with the aid of a cork stamp. Respectively 100 leaf disks were incubated in control medium (LS-Medium without Sucrose, 5 mM MES pH 7.0) or in salicylic acid containing medium (LS-Medium without Sucrose, 5 mM MES pH 7.0, 2.0 mM SA) for 16 hours at 24° C. Total cell RNA was isolated and an RNA-blot analysis was carried out as described above. The intensity of the hybridization as signal on the RNA-blot was quantified with the aid of a Phosphoimager. The promoter activity of the disks in the control set is not constant over the experiment (Table 8). Based on the 0 hour value, the promoter activity in the control set falls slightly after 3 hours, only to then increase over 6 hours and 11 hours until the 24 hour value. After 24 hours the transcript amount in the control set is approximately 3-fold higher than in the beginning of the experiment (0 h). This rise in the promoter activity is to be traced back to the wounding of the leaf tissue during the stamping out of the leaf disks. […] In the salicylic acid containing medium there is likewise a rise in the transcript amount depending upon the time (Table 8). […] Thus the transcript amount after 24 hours is approximately the 8.5-fold of the 0 h value. The cause of the higher activity of the promoter in the salicylic acid containing medium is the inducibility of the promoter by salicylic acid.

O=C(O)c1ccccc1O [SA, salicylic acid]
AG5947-t38 Specific GUS-Activities ([1]; AG5947-t38 leaf disks, 16 hours at 24° C.): 485.3 pMol Mu × min^−1 × mg^−1
AG5947-t38 Induction ([1]; AG5947-t38 leaf disks, vs control medium): 19.8
AG5947-t48 Specific GUS-Activity ([1]; AG5947-t48 leaf disks, 16 hours at 24° C.): 17.2 pMol Mu × min^−1 × mg^−1
AG5947-t48 Induction ([1]; AG5947-t48 leaf disks, vs control medium): 9.2
Separated + SA Specific GUS-Activity ([2]; PR1-52, Leaf 1, t = 0 d): 314.92 pMol Mu × min^−1 × mg^−1
SA-Induction ([2]; PR1-52, Leaf 1, t = 0 d): 5.3
Separated + SA Specific GUS-Activity ([2]; PR1-52, Leaf 1, t = 16 d): 861.82 pMol Mu × min^−1 × mg^−1
SA-Induction ([2]; PR1-52, Leaf 1, t = 16 d): 30.5
Separated + SA Specific GUS-Activity ([2]; PR1-52, Leaf 2, t = 0 d): 205.53 pMol Mu × min^−1 × mg^−1
SA-Induction ([2]; PR1-52, Leaf 2, t = 0 d): 13.6
Separated + SA Specific GUS-Activity ([2]; PR1-52, Leaf 2, t = 16 d): 2358.18 pMol Mu × min^−1 × mg^−1
SA-Induction ([2]; PR1-52, Leaf 2, t = 16 d): 30.7
Separated + SA Specific GUS-Activity ([2]; PR1-52, Leaf 3, t = 0 d): 225.07 pMol Mu × min^−1 × mg^−1
SA-Induction ([2]; PR1-52, Leaf 3, t = 0 d): 21.7
Separated + SA Specific GUS-Activity ([2]; PR1-52, Leaf 3, t = 16 d): 555.62 pMol Mu × min^−1 × mg^−1
SA-Induction ([2]; PR1-52, Leaf 3, t = 16 d): 8.8
Separated + SA Specific GUS-Activity ([2]; PR1-52, Leaf 4, t = 0 d): 117.97 pMol Mu × min^−1 × mg^−1
SA-Induction ([2]; PR1-52, Leaf 4, t = 0 d): 25.7
Separated + SA Specific GUS-Activity ([2]; PR1-52, Leaf 4, t = 16 d): 1561.3 pMol Mu × min^−1 × mg^−1
SA-Induction ([2]; PR1-52, Leaf 4, t = 16 d): 44.5
Separated + SA Specific GUS-Activity ([2]; PR1-52, Leaf 5, t = 0 d): 140.37 pMol Mu × min^−1 × mg^−1
SA-Induction ([2]; PR1-52, Leaf 5, t = 0 d): 29.4
Separated + SA Specific GUS-Activity ([2]; PR1-52, Leaf 5, t = 16 d): 1220.71 pMol Mu × min^−1 × mg^−1
SA-Induction ([2]; PR1-52, Leaf 5, t = 16 d): 9.0
Separated + SA Specific GUS-Activity ([2]; PR1-52, Leaf 6, t = 0 d): 106.35 pMol Mu × min^−1 × mg^−1
SA-Induction ([2]; PR1-52, Leaf 6, t = 0 d): 319.4
Separated + SA Specific GUS-Activity ([2]; PR1-52, Leaf 6, t = 16 d): 1003.47 pMol Mu × min^−1 × mg^−1
SA-Induction ([2]; PR1-52, Leaf 6, t = 16 d): 47.0
Separated + SA Specific GUS Activity ([3]; PR1-52 (pAG5947-trans), leaf disks): 218.93 pMol Mu × min^−1 × mg^−1
SA-Induction ([3]; PR1-52 (pAG5947-trans)): 14.5
Separated + SA Specific GUS Activity ([3]; PR1-54 (pAG5947-trans), leaf disks): 167.83 pMol Mu × min^−1 × mg^−1
SA-Induction ([3]; PR1-54 (pAG5947-trans)): 8.0
Separated + SA Specific GUS Activity ([3]; PR1-56 (pAG5947-trans), leaf disks): 661.19 pMol Mu × min^−1 × mg^−1
SA-Induction ([3]; PR1-56 (pAG5947-trans)): 8.3
change of reporter gene / promoter activity (in words) ([3]; lines PR1-52, PR1-54 and PR1-56 transformed with pAG5947-trans, leaf disks): significant induction
Separated + SA Specific GUS Activity ([4]; PR4-19 (pAG516)): 16.6 pMol Mu × min^−1 × mg^−1
SA-Induction ([4]; PR4-19 (pAG516)): 2.3
Separated + SA Specific GUS Activity ([4]; PR4-21 (pAG516)): 21.3 pMol Mu × min^−1 × mg^−1
SA-Induction ([4]; PR4-21 (pAG516)): 0.6
Separated + SA Specific GUS Activity ([4]; PR4-22 (pAG516)): 19.3 pMol Mu × min^−1 × mg^−1
SA-Induction ([4]; PR4-22 (pAG516)): 3.6
SA-inducibility (in words) ([4]; plants transformed with the construct pAG516, leaf disks): small SA-inducibility
Separated + SA Specific GUS Activity ([5]; PR8-2 (pAG2339)): 1.7 pMol Mu × min^−1 × mg^−1
Separated + SA Specific GUS Activity ([5]; PR8-3 (pAG2339)): 0 pMol Mu × min^−1 × mg^−1
Separated + SA Specific GUS Activity ([5]; PR8-12 (pAG2339)): 0 pMol Mu × min^−1 × mg^−1
Separated + SA Specific GUS Activity ([6]; leaf disks, SA): 6.2 pMol Mu × min^−1 × mg^−1
SA-Induction ([6]; vs fresh harvested control leaves): 0.8
transcript amount after 24 hours relative to the 0 h value ([7]; sugar beet leaf disks in salicylic acid containing medium (2.0 mM SA)): ~8.5 fold
transcript amount formed by the promoter activity ([7]; Time 0 h): 81 PSL (photo stimulated luminescence)-units
transcript amount formed by the promoter activity ([7]; Time 3 h): 107 PSL (photo stimulated luminescence)-units
transcript amount formed by the promoter activity ([7]; Time 6 h): 284 PSL (photo stimulated luminescence)-units
transcript amount formed by the promoter activity ([7]; Time 11 h): 513 PSL (photo stimulated luminescence)-units
transcript amount formed by the promoter activity ([7]; Time 24 h): 688 PSL (photo stimulated luminescence)-units
